For 74 molecules, IC50 results are on record in patent US20160002247A1, “8-SUBSTITUTED IMIDAZOPYRIMIDINONE DERIVATIVE HAVING AUTOTAXIN INHIBITORY ACTIVITY” (THE UNIVERSITY OF TOKYO, priority 2013, published 2016).

One assay deals with T1, Human autotaxin enzyme (Homo sapiens, UniProt Q13822).
T1 construct: purchased R&D System
Nature of the assay: Evaluation of autotaxin inhibitor, Method B (Test Example 2): TG-mTMP fluorescence. The format is biochemical. To be noted: Assay Method B (Test Example 2), human autotaxin; read-out: Inhibitory Activity (autotaxin enzyme inhibitory activity, IC50 class). As to the method:
(Method B) Evaluation of Autotaxin Inhibitor
Solution A containing 25 mM Tris-HCl buffer (pH7.5), 100 mM NaCl, 5 mM MgCl2 and 0.1% BSA was prepared. Human autotaxin enzyme (purchased from R&D System) was diluted with Solution A, and 5 μL of which was added to a solution of test compound in DMSO. Furthermore, 5 μl of 0.5 μM TG-mTMP in Solution A was added and allowed to react at room temperature for 2 hours. 5 μl of 150 mM EDTA in Solution A was added to quench the reaction, and the fluorescent dye TokyoGreen, which was produced by the reaction, was detected. The fluorescence was detected using ViewLux (PerkinElmer, Inc.) with an excitation wavelength of 480 nm and a fluorescence wavelength of 540 nm.
As for `CCC(CC)Cn1c(C)cc(=O)n2cc(-c3ccc(Cl)cc3)nc12` [Compound 87], the IC50 (usually the concentration that inhibits the measured activity by half) is 10 to 100 nM.

With `Cc1cc(=O)n2cc(-c3ccc(Cl)cc3)nc2n1Cc1ccc(-c2ccccc2)cc1` [Compound 88], the half-inhibitory concentration (IC50) was in the range of 100 to 1000 nM.

In the case of `Cc1cc(=O)n2cc(-c3ccc(Cl)cc3)nc2n1Cc1ccc(OCCCN(C)C)cc1` [Compound 89], the IC50 is under 10 nM.

For the molecule `Cc1cc(=O)n2cc(-c3ccc(Cl)cc3)nc2n1Cc1ccc(Cl)cc1F` [Compound 90], the IC50 fell in the range of 10 to 100 nM.

Regarding `Cc1cc(=O)n2cc(-c3ccc(Cl)cc3)nc2n1Cc1ccc(-c2ncccn2)cc1` [Compound 91], the IC50 lay within 10 to 100 nM.

Take `Cc1cncc(Oc2ccc(Cn3c(C)cc(=O)n4cc(-c5ccc(Cl)cc5)nc34)cc2)n1` [Compound 92]: the IC50 lay in the range of 10 to 100 nM.

Consider `Cc1cc(=O)n2cc(-c3ccc(Cl)cc3)nc2n1Cc1ccc(Oc2ccccc2)cc1` [Compound 93], for which the IC50 is over 1000 nM.

Take `Cc1cc(=O)n2cc(-c3ccc(Cl)cc3)nc2n1CCCCF` [Compound 94]: the IC50 is 10 to 100 nM.

Consider `Cc1cc(=O)n2cc(-c3ccc(Cl)cc3)nc2n1Cc1ccc(C(C)C)cc1` [Compound 95], for which the half-inhibitory concentration (IC50) is 10 to 100 nM.

On to `Cc1cc(=O)n2cc(-c3ccc(Cl)cc3)nc2n1Cc1cccc(OCC(=O)O)c1` [Compound 96], for which the IC50 lay in the range of 100 to 1000 nM.

On to `Cc1cc(=O)n2cc(-c3ccc(Cl)cc3)nc2n1Cc1ccc(Br)cc1F` [Compound 97], for which the IC50 lay in the range of 10 to 100 nM.

Regarding `Cc1cc(=O)n2cc(-c3ccc(Cl)cc3)nc2n1Cc1ccc(C(=O)O)cc1` [Compound 99], the IC50 lay in the range of 100 to 1000 nM.

For `Cc1cc(=O)n2cc(-c3ccc(Cl)cc3)nc2n1C(C)c1cccc(F)c1` (centres unmarked) [Compound 100], the IC50 lay within 10 to 100 nM.

Take `Cc1cc(=O)n2cc(-c3ccc(Cl)cc3)nc2n1Cc1ccc(F)cc1F` [Compound 101]: the IC50 lay in the range of 10 to 100 nM.

As to `Cc1cc(=O)n2cc(-c3ccc(Cl)cc3)nc2n1Cc1ccc2ccccc2c1` [Compound 102], the IC50 lay within 100 to 1000 nM.

Turning to `COC(=O)c1ccc(Cn2c(C)cc(=O)n3cc(-c4ccc(Cl)cc4)nc23)cc1` [Compound 103], the IC50 lay in the range of 10 to 100 nM.

`Cc1cc(=O)n2cc(-c3ccc(Cl)cc3)nc2n1Cc1ccc(Cl)c(Cl)c1` [Compound 104]: the 50% inhibitory concentration (IC50) is 10 to 100 nM.

Regarding `Cc1cc(=O)n2cc(-c3ccc(Cl)cc3)nc2n1Cc1ccc(S(C)(=O)=O)cc1` [Compound 105], the IC50 lay within 10 to 100 nM.

Consider `Cc1cc(=O)n2cc(-c3ccc(Cl)cc3)nc2n1CCCC#N` [Compound 106], for which the half-inhibitory concentration (IC50) is 10 to 100 nM.

In the case of `Cc1cc(=O)n2cc(-c3ccc(Cl)cc3)nc2n1CC1CCCO1` (centres unmarked) [Compound 107], the IC50 was in the range of 100 to 1000 nM.

With `Cc1cc(=O)n2cc(-c3ccc(Cl)cc3)nc2n1C(C)c1cccc(C(F)(F)F)c1` (centres unmarked) [Compound 108], the IC50 was in the range of 10 to 100 nM.

Consider `Cc1cc(=O)n2cc(-c3ccc(Cl)cc3)nc2n1Cc1ccncc1` [Compound 109], for which the IC50 lay within 100 to 1000 nM.

As to `Cc1cc(=O)n2cc(-c3ccc(Cl)cc3)nc2n1Cc1ccc(C(N)=O)cc1` [Compound 110], the IC50 was in the range of 10 to 100 nM.

On to `Cc1cc(=O)n2cc(-c3ccc(Cl)cc3)nc2n1Cc1ccc(C(=O)c2ccccc2)cc1` [Compound 111], for which the IC50 was in the range of 100 to 1000 nM.

Regarding `COC(=O)Cc1ccc(Cn2c(C)cc(=O)n3cc(-c4ccc(Cl)cc4)nc23)cc1` [Compound 112], the IC50 lay in the range of 10 to 100 nM.

Regarding `Cc1cc(=O)n2cc(-c3ccc(Cl)cc3)nc2n1Cc1ccc(S(=O)(=O)C(F)F)cc1` [Compound 113], the IC50 lay in the range of 10 to 100 nM.

As to `Cc1cc(=O)n2cc(-c3ccc(Cl)cc3)nc2n1Cc1ccccn1` [Compound 114], the IC50 was in the range of 10 to 100 nM.

Regarding `Cc1cc(=O)n2cc(-c3ccc(Cl)cc3)nc2n1Cc1cccc(C(F)(F)F)c1` [Compound 115], the IC50 is 10 to 100 nM.

Take `Cc1cc(=O)n2cc(-c3ccc(Cl)cc3)nc2n1Cc1ccc(C(F)(F)F)cc1` [Compound 116]: the IC50 lay within 100 to 1000 nM.

Consider `Cc1cc(=O)n2cc(-c3ccc(Cl)cc3)nc2n1Cc1cccnc1` [Compound 117], for which the IC50 is 10 to 100 nM.

For `Cc1cc(=O)n2cc(-c3ccc(Cl)cc3)nc2n1CC1CCOC1` (centres unmarked) [Compound 118], the IC50 was 100 to 1000 nM.

On to `Cc1cc(=O)n2cc(-c3ccc(Cl)cc3)nc2n1Cc1ccc(COc2ccccc2)cc1` [Compound 120], for which the IC50 is over 1000 nM.

Take `Cc1cc(=O)n2cc(-c3ccc(Cl)cc3)nc2n1Cc1cccc(F)c1` [Compound 121]: the IC50 was in the range of 10 to 100 nM.

With `Cc1cc(=O)n2cc(-c3ccc(Cl)cc3)nc2n1Cc1ccc(OC(F)(F)F)cc1` [Compound 122], the IC50 was in the range of 100 to 1000 nM.

As to `Cc1cc(=O)n2cc(-c3ccc(Cl)cc3)nc2n1Cc1ccc(C(C)(C)C)cc1` [Compound 123], the IC50 was 100 to 1000 nM.

As for `COCCCCn1c(C)cc(=O)n2cc(-c3ccc(Cl)cc3)nc12` [Compound 124], the IC50 lay within 10 to 100 nM.

As for `CCCc1cn2c(=O)ccn(CCc3ccc(Cl)cc3)c2n1` [Compound 128], the IC50 is over 1000 nM.

For the molecule `CCCc1cn2c(=O)ccn(CCCc3ccc(Cl)cc3)c2n1` [Compound 129], the concentration for half-maximal inhibition (IC50) is over 1000 nM.

With `CCCCCn1c(C)cc(=O)n2cc(-c3ccccc3)nc12` [Compound 138], the IC50 was 100 to 1000 nM.

Take `CCCCCn1c(C)cc(=O)n2cc(C3CCCCC3)nc12` [Compound 139]: the IC50 fell in the range of 100 to 1000 nM.

As to `CCCCCn1c(C)cc(=O)n2cc(-c3coc4ccccc34)nc12` [Compound 140], the IC50 was in the range of 100 to 1000 nM.

As to `CCCCCn1c(C)cc(=O)n2cc(-c3ccc(Oc4ccccc4)cc3)nc12` [Compound 141], the 50% inhibitory concentration (IC50) fell in the range of 10 to 100 nM.

With `CCCCCn1c(C)cc(=O)n2cc(-c3cc4ccccc4s3)nc12` [Compound 142], the half-maximal inhibitory concentration (IC50) was 10 to 100 nM.

Consider `CCCCCn1c(C)cc(=O)n2cc(-c3cc4ccccc4o3)nc12` [Compound 143], for which the IC50 lay within 100 to 1000 nM.

As to `CCCCCn1c(C)cc(=O)n2cc(-c3ccsc3)nc12` [Compound 144], the IC50 lay within 100 to 1000 nM.

For `CCCCCn1c(C)cc(=O)n2cc(-c3ccc(C4CCCCC4)cc3)nc12` [Compound 145], the 50% inhibitory concentration (IC50) was over 1000 nM.

`CCCCCn1c(C)cc(=O)n2cc(-c3ccc4occc4c3)nc12` [Compound 146]: the IC50 is 100 to 1000 nM.

For `CCCCCn1c(C)cc(=O)n2cc(-c3cccc(Cl)c3)nc12` [Compound 147], the IC50 was over 1000 nM.

The assay is the same for the next values; noted with them: Assay Method: Method B (Test Example 2); read-out: Inhibitory Activity (Enzyme Inhibitory Activity, IC50).
On to `Cc1cccc(Cn2c(C)cc(=O)n3cc(-c4ccc(Cl)cc4)nc23)c1` [Compound 60], for which the IC50 was in the range of 100 to 1000 nM.

Regarding `CC(=O)CCCn1c(C)cc(=O)n2cc(-c3ccc(Cl)cc3)nc12` [Compound 61], the IC50 fell in the range of 100 to 1000 nM.

For `CCN(CC)C(=O)Cn1c(C)cc(=O)n2cc(-c3ccc(Cl)cc3)nc12` [Compound 62], the IC50 fell in the range of 100 to 1000 nM.

As to `Cc1ccccc1Cn1c(C)cc(=O)n2cc(-c3ccc(Cl)cc3)nc12` [Compound 64], the IC50 was 100 to 1000 nM.

For the molecule `Cc1cc(=O)n2cc(-c3ccc(Cl)cc3)nc2n1CCC(F)(F)F` [Compound 65], the IC50 fell in the range of 100 to 1000 nM.

`Cc1cc(=O)n2cc(-c3ccc(Cl)cc3)nc2n1CC1CC1` [Compound 66]: the half-maximal inhibitory concentration (IC50) was 10 to 100 nM.

Regarding `Cc1ccc(Cn2c(C)cc(=O)n3cc(-c4ccc(Cl)cc4)nc23)cc1` [Compound 67], the IC50 is 10 to 100 nM.

Consider `Cc1cc(=O)n2cc(-c3ccc(Cl)cc3)nc2n1CC(=O)NC(C)C` [Compound 68], for which the IC50 is over 1000 nM.

`Cc1cc(=O)n2cc(-c3ccc(Cl)cc3)nc2n1CC(=O)C1CCCCC1` [Compound 69]: the IC50 was over 1000 nM.

As for `Cc1cc(=O)n2cc(-c3ccc(Cl)cc3)nc2n1CCN(C)C` [Compound 70], the IC50 lay within 100 to 1000 nM.

Take `CCC(C)Cn1c(C)cc(=O)n2cc(-c3ccc(Cl)cc3)nc12` (centres unmarked) [Compound 71]: the IC50 fell in the range of 10 to 100 nM.

Take `Cc1cc(=O)n2cc(-c3ccc(Cl)cc3)nc2n1CC(=O)OC(C)C` [Compound 72]: the IC50 is 10 to 100 nM.

For `Cc1cc(=O)n2cc(-c3ccc(Cl)cc3)nc2n1CC(=O)OC(C)(C)C` [Compound 73], the IC50 was 10 to 100 nM.

As to `Cc1cc(=O)n2cc(-c3ccc(Cl)cc3)nc2n1C(C)C(=O)OC(C)(C)C` (centres unmarked) [Compound 74], the IC50 was 100 to 1000 nM.

Take `CCN(CC)CCn1c(C)cc(=O)n2cc(-c3ccc(Cl)cc3)nc12` [Compound 75]: the IC50 lay in the range of 100 to 1000 nM.

In the case of `Cc1cc(=O)n2cc(-c3ccc(Cl)cc3)nc2n1CCOC(C)C` [Compound 76], the half-maximal inhibitory concentration (IC50) was in the range of 100 to 1000 nM.

In the case of `Cc1cc(=O)n2cc(-c3ccc(Cl)cc3)nc2n1CC1CCC1` [Compound 77], the IC50 was in the range of 10 to 100 nM.

Take `Cc1cc(=O)n2cc(-c3ccc(Cl)cc3)nc2n1CC(C)C` [Compound 78]: the IC50 was 10 to 100 nM.

Turning to `Cc1cc(=O)n2cc(-c3ccc(Cl)cc3)nc2n1CCC(C)C` [Compound 79], the IC50 fell in the range of 10 to 100 nM.

As for `CCOC(=O)C(C)n1c(C)cc(=O)n2cc(-c3ccc(Cl)cc3)nc12` (centres unmarked) [Compound 80], the IC50 was in the range of 10 to 100 nM.

With `Cc1cc(=O)n2cc(-c3ccc(Cl)cc3)nc2n1CCCC(C)C` [Compound 81], the IC50 was under 10 nM.

For `Cc1cc(=O)n2cc(-c3ccc(Cl)cc3)nc2n1CCc1ccccc1` [Compound 82], the IC50 lay within 10 to 100 nM.

As to `Cc1cc(=O)n2cc(-c3ccc(Cl)cc3)nc2n1C1CCC1` [Compound 83], the IC50 is 10 to 100 nM.

Consider `CCCC(Cn1c(C)cc(=O)n2cc(-c3ccc(Cl)cc3)nc12)OS(C)(=O)=O` (centres unmarked) [Compound 84], for which the IC50 was under 10 nM.

As for `Cc1cc(=O)n2cc(-c3ccc(Cl)cc3)nc2n1Cc1ccc(OCCN2CCCC2)cc1` [Compound 85], the IC50 is under 10 nM.

Regarding `CCOC(=O)c1ccc(Cn2c(C)cc(=O)n3cc(-c4ccc(Cl)cc4)nc23)cc1` [Compound 86], the IC50 fell in the range of 100 to 1000 nM.
